Source: ChEMBL document CHEMBL1136379, “Identification of potent and broad-spectrum antibiotics from SAR studies of a synthetic vancomycin analogue” (2003)
≈ marks a conversion by molar mass, not a printed value.

Tests used:
Format in all cases: functional
Enterococcus faecium [1] = assay: Compound tested for Susceptibility of vancomycin-resistant Enterococcus faecium
Enterococcus faecium [2] = assay: Minimum inhibitory concentration against vancomycin-resistant Enterococcus faecium
Escherichia coli [3] = assay: Compound tested for Susceptibility of Escherichia coli (efflux mutant)
Escherichia coli [4] = assay: Compound tested for Susceptibility of Escherichia coli
Enterococcus faecalis = assay: Compound tested for Susceptibility of Enterococcus faecalis
Haemophilus influenzae [5] = assay: Compound tested for Susceptibility of Haemophilus influenzae (efflux mutant)
Haemophilus influenzae [6] = assay: Compound tested for Susceptibility of Haemophilus influenzae
Klebsiella pneumoniae = assay: Compound tested for Susceptibility of Klebsiella pneumoniae
Moraxella catarrhalis = assay: Compound tested for Susceptibility of Moraxella catarrhalis
Pseudomonas aeruginosa = assay: Compound tested for Susceptibility of Pseudomonas aeruginosa
Streptococcus pyogenes = assay: Compound tested for Susceptibility of Streptococcus pyogenes
Staphylococcus aureus [7] = assay: Compound tested for Susceptibility of Methicillin-resistant Staphylococcus aureus […]
Staphylococcus aureus [8] = assay: Compound tested for Susceptibility of Staphylococcus aureus
[9] = test system: Staphylococcus epidermidis; assay: Compound tested for Susceptibility of Methicillin-resistant Staphylococcus epidermidis (MRSE)
[10] = test system: Staphylococcus epidermidis; assay: Compound tested for Susceptibility of Staphylococcus epidermidis
Streptococcus pneumoniae [11] = assay: Compound tested for Susceptibility of Streptococcus pneumoniae (Penicillin-intermediate)
Streptococcus pneumoniae [12] = assay: Compound tested for Susceptibility of Streptococcus pneumoniae
Enterococcus faecium [13] = assay: Compound tested for Susceptibility of Enterococcus faecium

SMILES	MIC (Enterococcus faecium [1]) [µg/mL]	MIC (Enterococcus faecium [2]) [µg/mL]	further results
CN[C@H](CC(C)C)C(=O)N[C@@H]1Cc2ccc(cc2)Oc2cc(ccc2O)C(C(=O)N[C@@H](CN)C(=O)N[C@@H](Cc2ccccc2)C(=O)N2Cc3[nH]c4ccccc4c3C[C@H]2C(N)=O)NC(=O)[C@H](CC(N)=O)NC1=O (stereo not given in full)	150 (≈ 150 µM)	300 (≈ 300 µM)	
CC(=O)N[C@@H](CN)C(=O)N[C@@H](Cc1ccccc1)C(=O)N1Cc2[nH]c3ccccc3c2C[C@H]1C(N)=O	1200 (≈ 2450 µM)	600 (≈ 1220 µM)	
CN[C@H](CC(C)C)C(=O)N[C@@H](CN)C(=O)N[C@@H](Cc1ccccc1)C(=O)N1Cc2[nH]c3ccccc3c2C[C@H]1C(N)=O	> 1200	600 (≈ 1040 µM)	
CC(=O)N[C@@H](CN)C(=O)N[C@@H](Cc1ccccc1)C(=O)N1Cc2[nH]c3ccccc3c2C[C@H]1C(=O)NCC(O)CNC(=O)[C@@H]1Cc2c([nH]c3ccccc23)CN1C(=O)[C@H](Cc1ccccc1)NC(=O)[C@H](CN)NC(C)=O	18 (≈ 17.4 µM)	600 (≈ 578 µM)	
CNC(CC(C)C)C(=O)N[C@@H](CN)C(=O)N[C@@H](Cc1ccccc1)C(=O)N1Cc2[nH]c3ccccc3c2C[C@H]1C(=O)NCC(O)CNC(=O)[C@@H]1Cc2c([nH]c3ccccc23)CN1C(=O)[C@H](Cc1ccccc1)NC(=O)[C@H](CN)NC(=O)[C@@H](CC(C)C)NC (stereo not given in full)	18 (≈ 14.9 µM)	600 (≈ 497 µM)	MIC (Escherichia coli [3]): 16 µg/mL (≈ 13.3 µM); MIC (Escherichia coli [4]): 32 µg/mL (≈ 26.5 µM); MIC (Enterococcus faecalis): 8 µg/mL (≈ 6.63 µM); MIC (Haemophilus influenzae [5]): 16 µg/mL (≈ 13.3 µM); MIC (Haemophilus influenzae [6]): 96 µg/mL (≈ 79.5 µM); MIC (Klebsiella pneumoniae): > 128 µg/mL; MIC (Moraxella catarrhalis): 8 µg/mL (≈ 6.63 µM); MIC (Pseudomonas aeruginosa): 128 µg/mL (≈ 106 µM); MIC (Streptococcus pyogenes): 2 µg/mL (≈ 1.66 µM); MIC (Staphylococcus aureus [7]): 32 µg/mL (≈ 26.5 µM); MIC (Staphylococcus aureus [8]): 16 µg/mL (≈ 13.3 µM); MIC [9]: 8 µg/mL (≈ 6.63 µM); MIC [10]: 24 µg/mL (≈ 19.9 µM); MIC (Streptococcus pneumoniae [11]): 8 µg/mL (≈ 6.63 µM); MIC (Streptococcus pneumoniae [12]): 16 µg/mL (≈ 13.3 µM); MIC (Enterococcus faecium [13]): 4 µg/mL (≈ 3.31 µM)
CN[C@H](CC(C)C)C(=O)N[C@@H]1Cc2ccc(cc2)Oc2cc(ccc2O)C(C(=O)N[C@@H](CN)C(=O)N[C@@H](Cc2ccccc2)C(=O)N2Cc3[nH]c4ccccc4c3C[C@H]2C(=O)NCCC(O)CCNC(=O)[C@@H]2Cc3c([nH]c4ccccc34)CN2C(=O)[C@H](Cc2ccccc2)NC(=O)[C@H](CN)NC(=O)C2NC(=O)[C@H](CC(N)=O)NC(=O)[C@H](NC(=O)[C@@H](CC(C)C)NC)Cc3ccc(cc3)Oc3cc2ccc3O)NC(=O)[C@H](CC(N)=O)NC1=O (stereo not given in full)	18 (≈ 8.64 µM)	600 (≈ 288 µM)	
NC(=O)C[C@@H]1NC(=O)[C@H](NC(=O)OCC2c3ccccc3-c3ccccc32)Cc2ccc(cc2)Oc2c(O)ccc(CC(=O)O)c2NC1=O		300 (≈ 451 µM)	
CN[C@@H](CC(C)C)C(=O)N[C@@H]1Cc2ccc(cc2)Oc2cc(ccc2O)C(C(=O)N[C@@H](CN)C(=O)N[C@@H](Cc2ccccc2)C(=O)N2Cc3[nH]c4ccccc4c3C[C@H]2C(=O)NCCCC(O)CCCNC(=O)[C@@H]2Cc3c([nH]c4ccccc34)CN2C(=O)[C@H](Cc2ccccc2)NC(=O)[C@H](CN)NC(=O)C2NC(=O)[C@H](CC(N)=O)NC(=O)[C@H](NC(=O)[C@@H](CC(C)C)NC)Cc3ccc(cc3)Oc3cc2ccc3O)NC(=O)[C@H](CC(N)=O)NC1=O (stereo not given in full) [VANCOMYCIN ANALOGUE]	38 (≈ 18 µM)	600 (≈ 284 µM)	
CN[C@H](CC(C)C)C(=O)N[C@@H]1Cc2ccc(cc2)Oc2cc(ccc2O)C(C(=O)N[C@@H](CN)C(=O)N[C@@H](Cc2ccccc2)C(=O)N2Cc3[nH]c4ccccc4c3C[C@H]2C(=O)NCC(O)CNC(=O)[C@@H]2Cc3c([nH]c4ccccc34)CN2C(=O)[C@H](Cc2ccccc2)NC(=O)[C@H](CN)NC(=O)C2NC(=O)[C@H](CC(N)=O)NC(=O)[C@H](NC(=O)[C@@H](CC(C)C)NC)Cc3ccc(cc3)Oc3cc2ccc3O)NC(=O)[C@H](CC(N)=O)NC1=O (stereo not given in full) [VANCOMYCIN ANALOGUE]	9 (≈ 4.38 µM)	600 (≈ 292 µM)	
CN[C@H](CC(C)C)C(=O)N[C@H]1C(=O)N[C@@H](CC(N)=O)C(=O)N[C@H]2C(=O)N[C@H]3C(=O)N[C@H](C(=O)N[C@H](C(=O)O)c4cc(O)cc(O)c4-c4cc3ccc4O)[C@H](O)c3ccc(c(Cl)c3)Oc3cc2cc(c3O[C@@H]2O[C@H](CO)[C@@H](O)[C@H](O)[C@H]2O[C@H]2C[C@](C)(N)[C@H](O)[C@H](C)O2)Oc2ccc(cc2Cl)[C@H]1O [VANCOMYCIN]	600 (≈ 414 µM)	600 (≈ 414 µM)	
